# Activity calls are given as the source filed them.
# Assays:
# [1] = target: Adenosylmethionine-8-amino-7-oxononanoate aminotransferase (Mycobacterium tuberculosis, UniProt P9WQ81); experiment: Mycobacterium tuberculosis BioA enzyme inhibitor Measured in Biochemical System Using Plate Reader - 2163-02_Inhibitor_Dose_CherryPick_Activity.; format: functional, Mycobacterium tuberculosis UT205
# [2] = target: T1, Probable nicotinate-nucleotide adenylyltransferase (Staphylococcus aureus (strain N315), UniProt P65502); format: functional, Staphylococcus aureus subsp. aureus N315; details: read-out: IC50_Mean;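 on IC50 Mean: confirmatory dose-response retesting of NadD inhibitor hits first found in an ultra-high-throughput screen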
# T1 sequence (P65502 whole entry): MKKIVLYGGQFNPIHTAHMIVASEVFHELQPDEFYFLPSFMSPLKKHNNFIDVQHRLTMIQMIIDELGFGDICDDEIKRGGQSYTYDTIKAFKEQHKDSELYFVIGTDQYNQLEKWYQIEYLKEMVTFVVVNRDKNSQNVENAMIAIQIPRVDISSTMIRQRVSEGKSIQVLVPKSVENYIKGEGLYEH
# [3] = target: T1, Probable nicotinate-nucleotide adenylyltransferase; format: functional, Staphylococcus aureus subsp. aureus N315
# [4] = target: T2, Heat shock factor protein 1 (Mus musculus, UniProt P38532); experiment: HSF1 potentiators in luciferase reporter cells, confirmation, cell-based, NIH3T3, luminescence, dose retest (AID 435004); format: functional;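 further: stress induced by proteasome inhibitor MG132 added 30 min after compound; luciferase reporter driven by HSF1 response element in NIH3T3 cells; actives raise luminescence as potentiators of the MG132 stress response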
# T2 sequence (P38532 whole entry): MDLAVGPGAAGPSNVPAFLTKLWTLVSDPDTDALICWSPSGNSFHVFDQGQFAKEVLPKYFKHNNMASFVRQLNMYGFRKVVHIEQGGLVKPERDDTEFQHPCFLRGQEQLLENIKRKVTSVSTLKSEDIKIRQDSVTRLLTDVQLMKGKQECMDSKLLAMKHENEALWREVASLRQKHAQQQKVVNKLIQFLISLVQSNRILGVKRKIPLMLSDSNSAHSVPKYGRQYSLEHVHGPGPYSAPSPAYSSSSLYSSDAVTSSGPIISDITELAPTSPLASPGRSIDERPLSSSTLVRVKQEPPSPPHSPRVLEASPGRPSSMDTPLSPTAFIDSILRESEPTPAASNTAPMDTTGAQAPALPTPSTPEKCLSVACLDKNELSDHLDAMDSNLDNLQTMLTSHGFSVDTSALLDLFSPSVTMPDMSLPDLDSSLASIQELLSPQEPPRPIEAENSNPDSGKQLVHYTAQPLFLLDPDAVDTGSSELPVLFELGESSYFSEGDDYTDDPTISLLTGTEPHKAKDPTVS
# [5] = system: BJ; experiment: cells; format: functional, cell-based; details: Homo sapiens
# [6] = system: BJ; experiment: cytotoxicity toward BJ-TERT fibroblasts, dose response, cell-based, RAS-independent, luminescence (AID 1933); format: functional; details: Homo sapiens
# [7] = Fluorescence-based cell-based high throughput dose response assay for inhibitors of the interaction of nucleotide-binding oligomerization domain containing 2 (NOD2) and the receptor-interacting serine-threonine kinase 2 (RIPK2).; format: functional; details: Homo sapiens
# [8] = system: BJ; experiment: cytotoxicity toward BJ-TERT-LT-ST fibroblasts, dose response, cell-based, RAS-independent, luminescence (AID 1935); format: functional; details: Homo sapiens;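 further: BJ fibroblasts immortalized with TERT plus LT and ST oncogenes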
# [9] = cytotoxicity toward DRD oncogenic fibroblasts, dose response, cell-based, non-viral oncogenic, luminescence (AID 1934); format: functional; details: Homo sapiens
# [10] = target: Heat shock protein HSP 90-alpha (Homo sapiens, UniProt P07900); format: functional, organism-based
# [11] = target: T3, Microphthalmia-associated transcription factor (Homo sapiens, UniProt O75030); experiment: TRPM1 promoter luciferase signal decrease, dose response, MITF inhibitor project, cell-based, SK-MEL-5, cherry-picked, set 3 (AID 493073); format: functional
# T3 sequence (O75030 whole entry): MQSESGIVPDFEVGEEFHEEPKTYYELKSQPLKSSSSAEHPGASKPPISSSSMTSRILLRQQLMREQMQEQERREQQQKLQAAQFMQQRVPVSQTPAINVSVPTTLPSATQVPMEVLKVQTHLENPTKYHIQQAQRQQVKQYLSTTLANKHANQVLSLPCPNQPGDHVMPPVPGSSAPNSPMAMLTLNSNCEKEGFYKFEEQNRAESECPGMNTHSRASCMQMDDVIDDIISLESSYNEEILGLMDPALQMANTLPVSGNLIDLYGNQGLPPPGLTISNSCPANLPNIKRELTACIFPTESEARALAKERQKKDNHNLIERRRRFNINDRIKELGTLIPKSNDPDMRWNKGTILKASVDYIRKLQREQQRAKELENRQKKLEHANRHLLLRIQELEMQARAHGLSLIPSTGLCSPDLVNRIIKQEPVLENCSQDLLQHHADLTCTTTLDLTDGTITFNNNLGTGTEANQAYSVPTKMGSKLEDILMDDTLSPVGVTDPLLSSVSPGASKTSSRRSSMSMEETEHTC
# [12] = target: Protein Wnt-3a (Mus musculus, UniProt P27467); experiment: Wnt3a-driven reporter signaling inhibition, dose response, selectivity assay for Gli-SUFU antagonist project, Wnt-LIGHT cells, luminescence (AID 651570); format: functional; details: read-out: IC50_Mean;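 further: Wnt-LIGHT reporter cells stimulated with conditioned medium from Wnt3a-producing cells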
# Protein Wnt-3a, sequence (P27467 whole entry): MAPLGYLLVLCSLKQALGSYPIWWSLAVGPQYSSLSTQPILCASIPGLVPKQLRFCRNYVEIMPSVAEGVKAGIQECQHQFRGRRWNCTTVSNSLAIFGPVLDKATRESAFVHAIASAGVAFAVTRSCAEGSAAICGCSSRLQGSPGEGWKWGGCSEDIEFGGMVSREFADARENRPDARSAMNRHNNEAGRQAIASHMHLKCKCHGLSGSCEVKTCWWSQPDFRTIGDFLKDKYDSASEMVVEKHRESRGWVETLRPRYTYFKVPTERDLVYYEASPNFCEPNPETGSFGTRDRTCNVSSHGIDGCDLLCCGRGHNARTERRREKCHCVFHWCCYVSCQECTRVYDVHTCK
# [13] = Luminescence Cell-Based Dose Response HTS to Identify Inhibitors of 5'UTR Stem-Loop Driven Prion Protein mRNA Translation in H4 Neuroglioblastoma Cells. [Related pubchem assays: 1827 (Project Summary), 1813 (Primary HTS)]; format: functional
# [14] = target: T4, Sentrin-specific protease 7 (Homo sapiens, UniProt Q9BQF6); format: functional;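 further: Luminescence-based dose-response confirmation of ultra-high-throughput screening hits, measuring inhibition of SENP7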
# T4 sequence (Q9BQF6 whole entry): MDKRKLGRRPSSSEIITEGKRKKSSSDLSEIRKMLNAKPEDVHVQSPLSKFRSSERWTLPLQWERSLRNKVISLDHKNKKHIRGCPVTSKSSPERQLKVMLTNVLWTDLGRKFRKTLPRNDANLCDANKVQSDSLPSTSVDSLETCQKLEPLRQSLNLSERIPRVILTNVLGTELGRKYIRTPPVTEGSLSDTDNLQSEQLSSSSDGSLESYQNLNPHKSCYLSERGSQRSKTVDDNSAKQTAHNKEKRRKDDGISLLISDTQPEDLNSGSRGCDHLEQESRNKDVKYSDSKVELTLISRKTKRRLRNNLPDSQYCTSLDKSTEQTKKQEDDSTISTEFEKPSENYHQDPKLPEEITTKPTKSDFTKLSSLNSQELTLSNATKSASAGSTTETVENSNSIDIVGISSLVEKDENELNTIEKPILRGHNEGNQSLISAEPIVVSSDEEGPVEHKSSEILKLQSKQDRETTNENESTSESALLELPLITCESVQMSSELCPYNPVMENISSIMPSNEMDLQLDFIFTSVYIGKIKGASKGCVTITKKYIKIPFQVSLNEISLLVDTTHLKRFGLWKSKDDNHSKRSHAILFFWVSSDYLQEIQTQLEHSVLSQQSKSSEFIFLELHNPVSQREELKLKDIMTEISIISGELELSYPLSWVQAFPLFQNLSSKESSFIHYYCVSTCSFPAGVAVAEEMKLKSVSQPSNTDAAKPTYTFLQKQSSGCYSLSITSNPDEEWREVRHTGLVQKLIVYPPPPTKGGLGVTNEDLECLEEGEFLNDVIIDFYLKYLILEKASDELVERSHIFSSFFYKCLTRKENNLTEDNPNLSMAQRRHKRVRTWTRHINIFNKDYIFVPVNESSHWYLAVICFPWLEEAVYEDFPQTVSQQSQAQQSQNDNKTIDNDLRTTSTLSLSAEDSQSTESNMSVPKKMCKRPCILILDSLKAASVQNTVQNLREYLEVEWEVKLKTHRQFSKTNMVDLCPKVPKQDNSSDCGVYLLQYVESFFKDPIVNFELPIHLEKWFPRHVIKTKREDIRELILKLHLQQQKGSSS
# [15] = target: T5, Sentrin-specific protease 6 (Homo sapiens, UniProt Q9GZR1); format: functional;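 further: Luminescence-based dose-response confirmatory assay of SENP6 inhibition, following up an ultra-high-throughput screen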
# T5 sequence (Q9GZR1 whole entry): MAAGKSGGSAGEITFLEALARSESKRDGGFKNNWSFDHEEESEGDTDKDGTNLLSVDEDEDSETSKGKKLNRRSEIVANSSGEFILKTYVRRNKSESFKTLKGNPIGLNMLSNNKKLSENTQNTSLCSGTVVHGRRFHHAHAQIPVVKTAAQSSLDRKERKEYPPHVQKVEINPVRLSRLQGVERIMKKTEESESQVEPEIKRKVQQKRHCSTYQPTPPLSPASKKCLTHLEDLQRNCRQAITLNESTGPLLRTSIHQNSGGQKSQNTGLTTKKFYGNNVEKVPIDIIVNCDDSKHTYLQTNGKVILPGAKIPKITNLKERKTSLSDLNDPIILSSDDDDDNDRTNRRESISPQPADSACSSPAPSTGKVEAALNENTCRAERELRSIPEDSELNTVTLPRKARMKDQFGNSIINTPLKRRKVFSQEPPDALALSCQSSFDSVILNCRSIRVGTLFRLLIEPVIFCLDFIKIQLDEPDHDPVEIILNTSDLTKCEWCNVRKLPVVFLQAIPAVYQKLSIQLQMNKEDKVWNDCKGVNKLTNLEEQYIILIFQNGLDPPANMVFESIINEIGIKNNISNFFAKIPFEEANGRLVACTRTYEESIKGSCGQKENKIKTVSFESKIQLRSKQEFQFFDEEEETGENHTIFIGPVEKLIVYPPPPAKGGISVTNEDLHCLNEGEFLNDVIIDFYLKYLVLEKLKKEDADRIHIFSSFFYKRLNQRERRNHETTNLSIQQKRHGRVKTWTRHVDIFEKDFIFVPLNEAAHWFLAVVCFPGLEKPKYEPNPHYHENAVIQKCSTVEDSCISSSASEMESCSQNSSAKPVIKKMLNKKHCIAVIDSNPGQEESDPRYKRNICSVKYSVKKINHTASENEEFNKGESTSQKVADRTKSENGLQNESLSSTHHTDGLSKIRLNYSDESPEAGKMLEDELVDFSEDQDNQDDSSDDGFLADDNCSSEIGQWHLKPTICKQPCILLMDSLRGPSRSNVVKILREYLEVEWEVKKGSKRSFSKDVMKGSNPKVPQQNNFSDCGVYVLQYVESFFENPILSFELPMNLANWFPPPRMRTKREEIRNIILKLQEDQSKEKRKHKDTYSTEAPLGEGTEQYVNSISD
# [16] = LGR2 antagonists, dose response, cell-based, HEK293, CRE-luciferase reporter, cherry pick, set 2 (AID 743343); format: functional;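 further: transfected cells were stimulated with diluted bursicon conditioned medium after compound addition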
# [17] = inhibitors of SNCA 5'UTR-driven reporter translation, confirmation, H4 neuroglioma cells, luminescence (AID 1988); format: functional, cell-based
# [18] = A549 cell cytotoxicity, dose response, cytotoxicity control, plate reader, cherry-pick, antagonist series (AID 743412); format: functional, cell-based
# [19] = target: T6, Sentrin-specific protease 8 (Homo sapiens, UniProt Q96LD8); format: functional;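 further: luminescence read-out of SENP8 inhibition, dose-response confirmation following an ultra-high-throughput screen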
# T6 sequence (Q96LD8 whole entry): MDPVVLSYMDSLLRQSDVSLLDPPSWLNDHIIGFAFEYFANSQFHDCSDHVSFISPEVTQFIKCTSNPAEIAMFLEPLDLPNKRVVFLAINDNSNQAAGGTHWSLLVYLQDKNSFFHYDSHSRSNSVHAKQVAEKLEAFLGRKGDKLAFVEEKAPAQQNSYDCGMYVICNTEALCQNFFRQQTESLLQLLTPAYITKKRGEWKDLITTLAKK
# [20] = MC4R antagonists, dose response, counter-screen for LGR2 antagonist project, cell-based, plate reader, cherry pick (AID 743444); format: functional;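 further: transfected HEK 293 cells stimulated with alpha-MSH peptide; potency of inhibitors of the alpha-MSH evoked signal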
# [21] = HEK293 cell cytotoxicity, dose response, cytotoxicity control, plate reader, cherry-picked samples (AID 743446); format: functional, cell-based
# [22] = HepG2 cell cytotoxicity, dose response, cytotoxicity control, plate reader, cherry-pick, antagonist series (AID 743416); format: functional, cell-based
# [23] = system: HEK293; experiment: inhibitors of LMP1-driven NF-kB reporter, dose response, cell-based, HEK293, luciferase, cherry-pick (AID 588343); format: functional; details: Homo sapiens
# [24] = target: T7, Caspase-3 (Homo sapiens, UniProt P42574); format: functional;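 further: Dose-response selectivity test against caspase-3 for candidate inhibitors of sentrin-specific proteases (SENPs)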
# T7 sequence (P42574 whole entry): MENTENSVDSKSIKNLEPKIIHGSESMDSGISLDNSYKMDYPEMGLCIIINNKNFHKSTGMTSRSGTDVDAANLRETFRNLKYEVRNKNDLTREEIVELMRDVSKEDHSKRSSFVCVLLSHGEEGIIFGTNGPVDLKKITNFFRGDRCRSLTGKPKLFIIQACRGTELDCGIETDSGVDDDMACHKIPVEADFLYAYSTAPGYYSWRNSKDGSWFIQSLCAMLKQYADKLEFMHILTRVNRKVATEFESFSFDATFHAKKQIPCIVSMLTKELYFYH
# [25] = target: Photoreceptor-specific nuclear receptor (Homo sapiens, UniProt Q9Y5X4); format: functional, cell-based;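 further: CHO-S cells with Gal4-NCOR and VP16-NR2E3 two-hybrid luciferase reporter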
# Photoreceptor-specific nuclear receptor, sequence (Q9Y5X4 whole entry, the tested form may be a part): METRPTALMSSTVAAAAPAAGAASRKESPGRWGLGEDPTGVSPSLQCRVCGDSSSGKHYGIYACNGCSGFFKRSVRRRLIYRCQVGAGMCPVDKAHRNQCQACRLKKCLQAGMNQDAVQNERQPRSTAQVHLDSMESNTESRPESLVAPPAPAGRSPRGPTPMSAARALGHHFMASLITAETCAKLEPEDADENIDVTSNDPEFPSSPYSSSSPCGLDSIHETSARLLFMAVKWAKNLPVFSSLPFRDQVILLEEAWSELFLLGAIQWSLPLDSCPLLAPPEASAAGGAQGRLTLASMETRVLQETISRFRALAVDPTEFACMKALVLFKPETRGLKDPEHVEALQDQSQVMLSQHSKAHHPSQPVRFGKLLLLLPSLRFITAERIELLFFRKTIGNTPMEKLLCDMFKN
# [26] = Shn3 3'UTR reporter inhibitors, dose response, cell-based, Clone20 osteoblasts, firefly luciferase, cherry-picked (AID 624132); format: functional;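 further: firefly luciferase luminescence from reporter carrying the Shn3 3'UTR in osteoblasts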
# [27] = HepG2 cell cytotoxicity, dose response, cytotoxicity control for Shn3 inhibitor project, CellTiter-Glo, cherry-picked (AID 624134); format: functional, cell-based
# [28] = control 3'UTR Renilla luciferase suppression, dose response, counter-screen for Shn3 inhibitor project, cell-based, Clone20-Shn3RL, cherry-picked (AID 624133); format: functional
# [29] = system: INS1; experiment: beta cell apoptosis inhibitors, cytokine rescue, dose response, luminescence, retest (AID 449756); format: functional, cell-based; details: Rattus norvegicus;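 further: cell death triggered by IL-1 beta plus TNF-alpha plus IFN-gamma mixture; protective hits raise ATP signal compared with cytokine alone wells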
# Adenosylmethionine-8-amino-7-oxononanoate aminotransferase, sequence (P9WQ81 whole entry): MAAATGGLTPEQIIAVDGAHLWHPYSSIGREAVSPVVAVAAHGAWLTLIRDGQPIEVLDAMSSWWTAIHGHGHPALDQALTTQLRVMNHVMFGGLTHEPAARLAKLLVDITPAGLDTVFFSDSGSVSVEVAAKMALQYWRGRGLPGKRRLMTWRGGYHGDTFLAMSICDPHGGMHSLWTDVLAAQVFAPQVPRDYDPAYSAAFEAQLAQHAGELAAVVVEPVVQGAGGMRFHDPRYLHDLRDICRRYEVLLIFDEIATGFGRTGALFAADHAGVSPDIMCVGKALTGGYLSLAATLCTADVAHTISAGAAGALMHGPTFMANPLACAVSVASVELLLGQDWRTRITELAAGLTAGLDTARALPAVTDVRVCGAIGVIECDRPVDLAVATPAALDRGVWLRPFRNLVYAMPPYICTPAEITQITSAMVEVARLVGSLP
compound,measurement,setting,value
CC(CNC(=O)CCCn1ncn2c(cc3occc32)c1=O)c1ccccc1 (stereo not drawn),AC50,[1],0.785 µM (active)
Cc1ccc(-c2nn(CCC(=O)Nc3cccnc3)c(=O)c3ccccc23)cc1,AC50,[1],0.148 µM (active)
CCC(C)n1c(=O)c(C(=O)Nc2ccccc2S(N)(=O)=O)c(O)c2ccccc21 (stereo not drawn),IC50,[2],41.1 µM (active)
same,IC50,[3],5.92 µM (active)
COc1cc2c(cc1/C=C/[N+](=O)[O-])OCO2,EC50,[4],8.55 µM (active)
same,EC50,[5],11.5 µM (inconclusive)
same,EC50,[6],8.89 µM (inconclusive)
same,IC50,[7],3.19 µM (active)
same,EC50,[8],8.52 µM (inconclusive)
same,EC50,[9],6.07 µM (active)
same,AC50,[10],4.25 µM (active)
same,AC50,[11],8.98 µM (active)
CC1CCC(NC(=O)c2cccc(S(=O)(=O)N3CCN(c4ccccc4)CC3)c2)CC1 (stereo not drawn),IC50,[12],28.3 µM (inactive)
Cc1ccc(/C=C/c2nc(O)c3ccccc3n2)cc1,EC50,[13],14.8 µM (active)
same,IC50,[14],0.788 µM (active)
same,IC50,[15],0.961 µM (active)
same,AC50,[16],2.73 µM (active)
same,EC50,[17],4.45 µM (inconclusive)
same,AC50,[18],> 52 µM (inactive)
same,IC50,[19],1.5 µM (active)
same,AC50,[20],2.45 µM (active)
same,AC50,[21],> 52 µM (inactive)
same,AC50,[22],> 52 µM (inactive)
same,AC50,[23],1.88 µM (active)
same,IC50,[24],0.999 µM (active)
O=C(CSc1nnc(SCc2ccccc2)s1)N/N=C/C=C/c1ccco1,IC50,[2],27.6 µM (active)
same,IC50,[3],12 µM (active)
COc1ccc(C)cc1NC(=O)c1nnn(Cc2cccc(C(F)(F)F)c2)c1N,IC50,[25],39.8 µM (inactive)
CC(CC(=O)N1CCN(c2cccc(Cl)c2)CC1)S(=O)(=O)c1ccc2c(c1)NC(=O)CO2 (stereo not drawn),AC50,[26],3.99 µM (active)
same,AC50,[27],34.7 µM (active)
same,AC50,[28],5.37 µM (active)
same,IC50,[12],15.1 µM (active)
same,AC50,[29],5.65 µM (active)

# Reference: ChEMBL document CHEMBL1201862, “PubChem BioAssay data set” (2004)
